Results as given in BindingDB's records for patent US20240101531 (Xenon Pharmaceuticals, 2024).

Biological target: Potassium voltage-gated channel subfamily KQT member 2/3 (Homo sapiens, UniProt O43525+O43526)
Test: In Vitro Assay
Text: This potassium flux assay employs the cell-permeable, potassium-sensitive dye, IPG-2 AM, to quantify potassium ion flux through potassium channels.In general, TREX HEK 293 or HEK 293 cells were stably transfected with either an inducible or non-inducible expression vector containing the full-length cDNA coding for the desired human KV7.2/KV7.3 or in combination with another full-length cDNA for a second desired human KV7 potassium channel. Potassium channel-expressing cell lines were induced with tetracycline (1 g/mL), if required, and plated on 384-well poly-D-lysine (PDL)-coated plates in culture media (DMEM, containing 10% FBS and 1% L-glutamine). After overnight incubation, culture media was removed and cells were loaded with 5 M IPG-2 AM dye for 1 hour in Assay buffer (140 mM NaCl, 20 mM RbCl, 2 mM CaCl2, 1 mM MgCl2, 10 mM HEPES (4-(2-hydroxyethyl)-1-piperazineethanesulfonic acid buffer), 10 mM glucose, adjusted with Tris to pH 7.4). Excess dye was removed, and cells incubated at room temperature for 20 minutes with or without test compound. […]

Sequence of Potassium voltage-gated channel subfamily KQT member 2/3 (O43526 whole entry): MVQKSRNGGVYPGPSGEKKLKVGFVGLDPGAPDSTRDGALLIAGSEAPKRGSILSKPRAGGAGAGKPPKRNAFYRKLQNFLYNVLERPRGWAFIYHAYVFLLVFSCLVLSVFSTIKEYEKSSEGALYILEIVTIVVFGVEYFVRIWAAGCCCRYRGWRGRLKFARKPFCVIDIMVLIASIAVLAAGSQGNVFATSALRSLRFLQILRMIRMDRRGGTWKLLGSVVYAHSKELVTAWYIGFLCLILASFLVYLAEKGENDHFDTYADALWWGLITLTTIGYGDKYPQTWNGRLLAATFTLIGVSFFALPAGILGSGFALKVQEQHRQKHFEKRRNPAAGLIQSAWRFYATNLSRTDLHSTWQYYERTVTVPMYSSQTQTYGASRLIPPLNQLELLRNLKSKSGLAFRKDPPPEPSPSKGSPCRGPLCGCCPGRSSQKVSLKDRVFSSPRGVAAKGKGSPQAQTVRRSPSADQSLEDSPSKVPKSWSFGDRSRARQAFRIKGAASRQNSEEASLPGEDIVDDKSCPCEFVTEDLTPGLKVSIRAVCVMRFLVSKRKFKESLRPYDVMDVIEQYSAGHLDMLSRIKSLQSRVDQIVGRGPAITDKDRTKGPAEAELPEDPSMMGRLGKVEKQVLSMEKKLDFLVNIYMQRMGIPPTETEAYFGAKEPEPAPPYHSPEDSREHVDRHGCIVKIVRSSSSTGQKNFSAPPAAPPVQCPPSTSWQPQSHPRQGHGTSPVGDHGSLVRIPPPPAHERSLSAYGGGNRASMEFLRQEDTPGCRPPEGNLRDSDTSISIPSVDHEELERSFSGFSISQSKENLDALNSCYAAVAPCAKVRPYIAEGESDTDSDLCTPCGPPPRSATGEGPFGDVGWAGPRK
Sequence of Potassium voltage-gated channel subfamily KQT member 2/3 (O43525 whole entry): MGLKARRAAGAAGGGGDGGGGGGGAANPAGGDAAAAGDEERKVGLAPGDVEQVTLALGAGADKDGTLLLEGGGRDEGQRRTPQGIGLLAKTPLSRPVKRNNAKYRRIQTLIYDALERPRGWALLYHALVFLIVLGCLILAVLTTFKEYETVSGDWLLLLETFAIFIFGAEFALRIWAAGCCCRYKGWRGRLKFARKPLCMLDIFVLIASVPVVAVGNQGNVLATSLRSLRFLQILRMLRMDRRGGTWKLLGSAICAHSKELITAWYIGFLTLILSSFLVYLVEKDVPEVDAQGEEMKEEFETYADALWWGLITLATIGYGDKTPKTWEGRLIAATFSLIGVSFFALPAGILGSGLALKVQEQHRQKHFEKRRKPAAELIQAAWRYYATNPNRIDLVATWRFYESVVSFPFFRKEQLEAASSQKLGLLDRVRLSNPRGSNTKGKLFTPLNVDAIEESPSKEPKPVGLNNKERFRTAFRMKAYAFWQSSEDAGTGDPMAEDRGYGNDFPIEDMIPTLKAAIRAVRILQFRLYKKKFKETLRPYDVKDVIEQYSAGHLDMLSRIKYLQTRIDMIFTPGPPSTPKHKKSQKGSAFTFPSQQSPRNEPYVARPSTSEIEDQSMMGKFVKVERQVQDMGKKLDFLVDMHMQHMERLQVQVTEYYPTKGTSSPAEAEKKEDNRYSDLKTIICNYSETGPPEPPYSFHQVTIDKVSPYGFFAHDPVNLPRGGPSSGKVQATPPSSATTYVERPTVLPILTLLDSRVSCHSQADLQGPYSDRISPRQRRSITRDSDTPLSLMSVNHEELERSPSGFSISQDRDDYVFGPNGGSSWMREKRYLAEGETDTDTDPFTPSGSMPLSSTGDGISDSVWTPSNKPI

EC50: < 1000 nM
Structure (SMILES): CC1(C)CC1(C#N)COc1ccc2c(Nc3ccc(Cl)nc3)nccc2c1 (stereo unspecified) [US20240101531, Example 330]
